Laboratory results taken from PMC3269522 (2011).

Biological target: CyaB (Pseudomonas aeruginosa, UniProt Q9HZ23)
Assay: adenylyl cyclase activity assay with purified enzyme
Assay type: biochemical

In the case of KH7.148, the IC50 is reported as about 10 µM.
